# Measurements taken from patent US4254278A, “1-Descarboxy-1-ketoester (ketoacid)-prostaglandins” (American Cyanamid Company, priority 1979, dated 1981).
# Key:
# Format in all cases: in vivo, guinea pigs
# [1] = system: bronchospasms elicited by histamine; experiment: Bronchodilator activity against histamine-induced bronchospasm (Konzett procedure); conditions: guinea pig; histamine spasmogen; three logarithmic cumulative intravenous doses
# Protocol: (§1) The compounds of this invention are useful as bronchodilators for the treatment of asthma and chronic bronchitis. Bronchodilator activity is determined in guinea pigs against bronchospasms elicited by intravenous injections of 5-hydroxytryptamine, histamine or acetylcholine by the Konzett procedure. [See J. Lulling, P. Lievens, F. El Sayed and J. Prignot, Arzneimittel-Forschung, 18, 955 (1968).]
# (§2) In Table which follows bronchodilator activity for representative compounds of this invention against one or more of three spasmogenic agents is expressed as an ED50 determined from the results obtained with three logarithmic cummulative intravenous doses. In this assay, these compounds of this invention provide an effect of longer duration than does natural 1-PGE1 or 1-PGE2.
# [2] = system: bronchospasms elicited by 5-hydroxytryptamine; experiment: Bronchodilator activity against 5-hydroxytryptamine-induced bronchospasm (Konzett procedure); conditions: guinea pig; 5-hydroxytryptamine spasmogen; three logarithmic cumulative intravenous doses
# Protocol: as §1, §2
# [3] = system: bronchospasms elicited by acetylcholine; experiment: Bronchodilator activity against acetylcholine-induced bronchospasm (Konzett procedure); conditions: guinea pig; acetylcholine spasmogen; three logarithmic cumulative intravenous doses
# Protocol: as §1, §2
SMILES,ED50 HIST. [1],ED50 5HT [2],ED50 ACH [3]
"CCCCCC(C)(O)/C=C/C1C(O)CC(=O)C1CCCCCCC(=O)C(=O)OCC (stereo not drawn) [d1-1,9-dioxo-1-carbethoxy-11α,15-dihydroxy-15-methyl-13-trans-prostene]",6050 Mg/kg × 10^-6,4220 Mg/kg × 10^-6,> 3.2 Mg/kg × 10^-6
"CCCCC(C)(O)C/C=C/C1C(O)CC(=O)C1/C=C\CCCCC(=O)C(=O)OCC (stereo not drawn) [d1-1,9-dioxo-1-carbethoxy-11α,16-dihydroxy-16-methyl-6-cis-13-trans-prostadiene]",9310 Mg/kg × 10^-6,9510 Mg/kg × 10^-6,5920 Mg/kg × 10^-6
